In paper PMC7990037 (Nature cancer, 2020):
Counter-ions that a name gives are not always drawn.

What was measured:
primary human PBMCs [1] = assay: PBMC toxicity; conditions: 16 h
[2] = parallel artificial membrane permeability assay; type: in vitro ADME; conditions: PAMPA, compared to high and low permeability controls
[3] = Liver microsome stability, mouse; conditions: liver microsomes
[4] = system: cGAMP exporter(s) in 293T cGAS ENPP1−/− cells; assay: Intracellular and extracellular cGAMP in 293T cGAS ENPP1−/− cells; conditions: 24 hours; STF-1084 10 μM; STF-1623 2 μM; QS1 in ENPP1 null cells
primary human PBMCs [5] = conditions: 200 nM cGAMP electroporated, 16 h; 50 μM STF-1084; 2 μM STF-1623
epithelial cells MDCK = assay: MDCK permeability assay; type: in vitro ADME
[6] = Liver microsome stability, human; conditions: liver microsomes
Caco-2 monolayer = assay: Caco-2 permeability assay; type: in vitro ADME; conditions: Caco-2, apical to basolateral, 2 hours
purified mouse ENPP1 = biological target: T1, purified mouse ENPP1 (Mus musculus, UniProt P06802); assay: 32P-cGAMP degradation TLC assay; type: biochemical
T1 sequence (P06802 85-906 limits assumed): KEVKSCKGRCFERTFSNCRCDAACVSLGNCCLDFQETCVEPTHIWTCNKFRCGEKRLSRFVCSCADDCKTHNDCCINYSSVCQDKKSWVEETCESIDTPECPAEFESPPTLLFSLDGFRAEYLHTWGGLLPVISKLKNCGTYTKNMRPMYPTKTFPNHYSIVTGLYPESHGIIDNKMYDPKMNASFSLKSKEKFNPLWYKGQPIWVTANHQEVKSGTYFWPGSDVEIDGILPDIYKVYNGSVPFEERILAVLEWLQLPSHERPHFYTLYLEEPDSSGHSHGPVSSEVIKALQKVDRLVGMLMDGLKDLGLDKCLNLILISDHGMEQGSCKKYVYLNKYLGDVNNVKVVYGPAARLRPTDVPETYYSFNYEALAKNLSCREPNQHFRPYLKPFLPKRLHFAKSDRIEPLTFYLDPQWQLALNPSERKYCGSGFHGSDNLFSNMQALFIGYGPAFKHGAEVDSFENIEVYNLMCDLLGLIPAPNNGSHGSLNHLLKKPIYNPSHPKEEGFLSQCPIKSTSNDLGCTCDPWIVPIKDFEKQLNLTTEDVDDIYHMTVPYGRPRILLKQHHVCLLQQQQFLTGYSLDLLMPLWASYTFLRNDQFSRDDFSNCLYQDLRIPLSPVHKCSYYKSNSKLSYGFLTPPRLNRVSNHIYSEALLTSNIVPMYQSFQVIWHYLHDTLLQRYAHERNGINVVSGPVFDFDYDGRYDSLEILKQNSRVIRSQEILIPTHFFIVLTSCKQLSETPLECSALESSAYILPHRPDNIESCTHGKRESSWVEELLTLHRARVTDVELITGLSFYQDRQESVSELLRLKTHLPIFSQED

[7] = biological target: T2, human ENPP1 transfected into 293T cGAS ENPP1−/− cells (Homo sapiens, UniProt P22413); assay: cGAMP export assay in ENPP1-transfected cells; type: cell-based
T2 sequence (P22413 1-925): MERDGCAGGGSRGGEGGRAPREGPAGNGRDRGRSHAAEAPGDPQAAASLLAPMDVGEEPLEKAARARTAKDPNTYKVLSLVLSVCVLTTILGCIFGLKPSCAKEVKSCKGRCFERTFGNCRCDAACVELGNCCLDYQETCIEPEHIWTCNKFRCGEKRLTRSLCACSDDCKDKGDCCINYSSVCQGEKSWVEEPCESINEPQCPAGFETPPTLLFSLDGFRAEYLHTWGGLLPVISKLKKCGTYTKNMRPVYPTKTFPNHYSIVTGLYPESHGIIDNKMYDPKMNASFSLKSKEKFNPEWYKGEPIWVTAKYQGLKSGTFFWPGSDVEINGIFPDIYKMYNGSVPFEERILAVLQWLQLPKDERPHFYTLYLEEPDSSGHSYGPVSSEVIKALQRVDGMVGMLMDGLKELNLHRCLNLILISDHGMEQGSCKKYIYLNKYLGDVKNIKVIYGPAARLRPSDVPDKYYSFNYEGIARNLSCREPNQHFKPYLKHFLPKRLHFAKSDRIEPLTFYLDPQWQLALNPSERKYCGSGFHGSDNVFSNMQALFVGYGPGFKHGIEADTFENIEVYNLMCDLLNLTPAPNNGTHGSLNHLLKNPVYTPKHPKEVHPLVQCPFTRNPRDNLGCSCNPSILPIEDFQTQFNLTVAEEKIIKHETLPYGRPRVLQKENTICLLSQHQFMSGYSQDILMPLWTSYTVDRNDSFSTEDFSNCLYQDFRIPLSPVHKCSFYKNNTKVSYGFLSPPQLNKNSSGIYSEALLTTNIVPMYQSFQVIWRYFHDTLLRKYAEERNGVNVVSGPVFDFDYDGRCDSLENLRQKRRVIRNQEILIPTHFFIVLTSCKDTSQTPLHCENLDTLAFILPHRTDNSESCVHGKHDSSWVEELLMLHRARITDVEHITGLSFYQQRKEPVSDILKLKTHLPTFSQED

[8] = Pharmacokinetics of STF-1623 after subcutaneous injection; type: in vivo, mouse
Panc02 tumors = assay: Panc02 syngeneic subcutaneous pancreatic tumor model; type: in vivo, mouse; conditions: subcutaneous pump, 50 mg/kg/day
CD14+ PBMCs = assay: Stimulation of CD14+ PBMCs with extracellular cGAMP; type: cell-based, human; conditions: soluble extracellular cGAMP, 16 h
4T1-luc tumors = assay: Established orthotopic 4T1-luc tumor growth with IR and cGAMP; type: in vivo, mouse
[9] = biological target: T3, alkaline phosphatase (ALPL) (Homo sapiens, UniProt P05186); assay: ALPL inhibition assay; type: biochemical
T3 sequence (P05186 18-524): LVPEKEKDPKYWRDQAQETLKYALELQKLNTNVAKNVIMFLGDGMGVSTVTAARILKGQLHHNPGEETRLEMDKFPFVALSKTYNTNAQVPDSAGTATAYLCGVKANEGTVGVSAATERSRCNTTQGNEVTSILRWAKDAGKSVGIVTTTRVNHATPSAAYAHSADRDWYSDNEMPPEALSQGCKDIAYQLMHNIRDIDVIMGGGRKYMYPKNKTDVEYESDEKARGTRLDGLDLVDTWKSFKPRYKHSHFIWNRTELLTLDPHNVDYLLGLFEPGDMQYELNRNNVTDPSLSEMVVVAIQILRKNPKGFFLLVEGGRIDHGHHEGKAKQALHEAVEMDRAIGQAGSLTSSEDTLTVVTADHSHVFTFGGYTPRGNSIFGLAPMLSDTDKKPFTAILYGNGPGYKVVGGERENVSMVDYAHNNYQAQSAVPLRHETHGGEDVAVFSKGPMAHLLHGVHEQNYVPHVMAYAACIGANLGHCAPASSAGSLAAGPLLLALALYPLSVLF

4T1-luc cells = assay: Extracellular cGAMP measurement in cancer cell lines; type: cell-based, mouse
ENPP2 = ENPP2 (Homo sapiens, UniProt Q13822); assay: ENPP2 inhibition assay; type: biochemical
[10] = Pharmacokinetics of STF-1084; conditions: in vivo

Molecule: COc1cccc2c(N3CCC(CCP(=O)(O)O)CC3)ncnc12 [STF-1623, (2-(1-(8-methoxyquinazolin-4-yl)piperidin-4-yl)ethyl)phosphonic acid]
- toxicity to PBMCs (primary human PBMCs [1]): not toxic
- permeability category [2]: cell impermeable
- half-life [3]: > 2.65 h
- effect on intracellular / extracellular cGAMP (cGAMP export) [4]: affected only extracellular cGAMP concentrations
- cytokine production (IFNB1, CXCL10 mRNA) after cGAMP electroporation (primary human PBMCs [5]): no effect on cytokine production
- permeability category (epithelial cells MDCK): cell impermeable
- half-life [6]: > 2.65 h
- permeability category (Caco-2 monolayer): cell impermeable
- Ki (purified mouse ENPP1): 16 nM
- IC50 [7]: 68 nM
- concentration at 24 h ([8]; mouse, plasma, sc, 300 mg/kg): > 100 nM
- pharmacokinetic profile (in words) ([8]; systemic dosing): improved pharmacokinetic profile compared to STF-1084
- tumor growth, combination with IR (Panc02 tumors; day 0 to 8, IR (20 Gy) on day 1): synergized with IR to delay tumor growth
- tumor growth, single agent (Panc02 tumors; day 0 to 8, no IR): delayed tumor growth as a single agent

Molecule: Nc1nc2c(ncn2[C@@H]2O[C@@H]3COP(=O)(O)O[C@H]4[C@@H](O)[C@H](n5cnc6c(N)ncnc65)O[C@@H]4COP(=O)(O)O[C@@H]2[C@@H]3O)c(=O)[nH]1 [cGAMP, 2’3’-cyclic GMP-AMP]
- cGAMP concentration to which CD14+ PBMCs respond by upregulating IFNB1 (CD14+ PBMCs): submicromolar
- tumor free survival (4T1-luc tumors; Enpp1−/− 4T1-luc tumors, IR (20 Gy) + three intratumoral injections of 10 μg cGAMP): 3/11
- survival (4T1-luc tumors; WT 4T1-luc tumors, IR (20 Gy) + three intratumoral injections of 10 μg cGAMP): no mice inoculated with WT tumors survived

Molecule: COc1cc2ncnc(N3CCC(CCP(=O)(O)O)CC3)c2cc1OC [STF-1084, dimethyl (2-(1-(6,7-dimethoxyquinazolin-4-yl)piperidin-4-yl)ethyl)phosphonic acid hydrogen bromide salt]
- toxicity to PBMCs (primary human PBMCs [1]; 100 μM): non-toxic
- Ki [9]: > 100000 nM
- permeability category [2]: impermeable
- half-life [3]: > 2.65 h
- effect on intracellular / extracellular cGAMP (cGAMP export) [4]: no effect on intracellular cGAMP
- permeability category (epithelial cells MDCK): impermeable
- extracellular cGAMP (4T1-luc cells; 4T1-luc, 48 hours, serum-containing media, 50 μM STF-1084): 3,000,000 molecules/cell
- half-life [6]: > 2.65 h
- permeability category (Caco-2 monolayer): impermeable
- tumor free survival (4T1-luc tumors; IR (20 Gy) + 10 μg cGAMP + 100 μL of 1 mM STF-1084 intratumoral on day 2, 4, 7): 1/10
- Ki (ENPP2): 5500 nM
- pharmacokinetics (in words) [10]: fast pharmacokinetics

B1: mENPP1: purified soluble recombinant mouse ENPP1, cGAMP hydrolase (protein, UniProt P06802 80-906, looked up)
extracellular domain: KPSCAKEVKSCKGRCFERTFSNCRCDAACVSLGNCCLDFQETCVEPTHIWTCNKFRCGEKRLSRFVCSCADDCKTHNDCCINYSSVCQDKKSWVEETCESIDTPECPAEFESPPTLLFSLDGFRAEYLHTWGGLLPVISKLKNCGTYTKNMRPMYPTKTFPNHYSIVTGLYPESHGIIDNKMYDPKMNASFSLKSKEKFNPLWYKGQPIWVTANHQEVKSGTYFWPGSDVEIDGILPDIYKVYNGSVPFEERILAVLEWLQLPSHERPHFYTLYLEEPDSSGHSHGPVSSEVIKALQKVDRLVGMLMDGLKDLGLDKCLNLILISDHGMEQGSCKKYVYLNKYLGDVNNVKVVYGPAARLRPTDVPETYYSFNYEALAKNLSCREPNQHFRPYLKPFLPKRLHFAKSDRIEPLTFYLDPQWQLALNPSERKYCGSGFHGSDNLFSNMQALFIGYGPAFKHGAEVDSFENIEVYNLMCDLLGLIPAPNNGSHGSLNHLLKKPIYNPSHPKEEGFLSQCPIKSTSNDLGCTCDPWIVPIKDFEKQLNLTTEDVDDIYHMTVPYGRPRILLKQHHVCLLQQQQFLTGYSLDLLMPLWASYTFLRNDQFSRDDFSNCLYQDLRIPLSPVHKCSYYKSNSKLSYGFLTPPRLNRVSNHIYSEALLTSNIVPMYQSFQVIWHYLHDTLLQRYAHERNGINVVSGPVFDFDYDGRYDSLEILKQNSRVIRSQEILIPTHFFIVLTSCKQLSETPLECSALESSAYILPHRPDNIESCTHGKRESSWVEELLTLHRARVTDVELITGLSFYQDRQESVSELLRLKTHLPIFSQED
modifications: extracellular domain
- extracellular cGAMP signal (4T1-luc cells; 4T1-luc conditioned media incubated with 10 nM recombinant mENPP1 overnight): abolished the cGAMP signal
